Assay results as given in US9133186B2, “Hetero ring-fused imidazole derivative having AMPK activating effect” (Shionogi & Co., Ltd., priority 2010, dated 2015).

How the values were obtained:
[1] = target: T1, human AMPK α1β1γ1 enzyme (Homo sapiens, UniProt Q13131+Q9Y478); assay: AMPK activator evaluation, Test Example 1 (mobility shift, FL-Peptide 7); assay type: biochemical; details: human AMPK α1β1γ1, control without compound = 100%; for Emax: read-out: Emax (maximum rate of increase in activity within the measurement range)
T1 construct: purchased Carna Biosciences, Inc
T1 sequence (Q13131 10-559 limits assumed): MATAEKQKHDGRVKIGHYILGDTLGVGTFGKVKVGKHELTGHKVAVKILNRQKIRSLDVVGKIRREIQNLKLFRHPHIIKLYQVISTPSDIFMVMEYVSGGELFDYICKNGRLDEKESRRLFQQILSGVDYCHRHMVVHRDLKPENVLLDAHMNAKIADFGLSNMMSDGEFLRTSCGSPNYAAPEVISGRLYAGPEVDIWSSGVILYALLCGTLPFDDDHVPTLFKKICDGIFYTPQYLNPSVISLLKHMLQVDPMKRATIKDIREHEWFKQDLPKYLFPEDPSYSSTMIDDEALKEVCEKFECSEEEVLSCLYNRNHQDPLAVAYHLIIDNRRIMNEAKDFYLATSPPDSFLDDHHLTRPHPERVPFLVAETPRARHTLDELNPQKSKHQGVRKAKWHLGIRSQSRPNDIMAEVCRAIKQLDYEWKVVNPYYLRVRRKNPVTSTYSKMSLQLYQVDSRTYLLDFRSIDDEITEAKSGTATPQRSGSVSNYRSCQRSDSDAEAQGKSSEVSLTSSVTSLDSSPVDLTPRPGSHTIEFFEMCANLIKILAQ
T1 sequence (Q9Y478 whole entry): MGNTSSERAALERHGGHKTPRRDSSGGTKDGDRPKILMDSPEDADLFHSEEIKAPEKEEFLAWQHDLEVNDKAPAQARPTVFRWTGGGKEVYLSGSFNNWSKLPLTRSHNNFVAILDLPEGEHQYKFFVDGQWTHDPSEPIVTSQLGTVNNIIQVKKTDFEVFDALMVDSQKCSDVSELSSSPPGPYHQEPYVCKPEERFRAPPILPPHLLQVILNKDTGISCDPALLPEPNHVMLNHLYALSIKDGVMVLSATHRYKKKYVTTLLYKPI
T1 sequence (P54619 whole entry partner): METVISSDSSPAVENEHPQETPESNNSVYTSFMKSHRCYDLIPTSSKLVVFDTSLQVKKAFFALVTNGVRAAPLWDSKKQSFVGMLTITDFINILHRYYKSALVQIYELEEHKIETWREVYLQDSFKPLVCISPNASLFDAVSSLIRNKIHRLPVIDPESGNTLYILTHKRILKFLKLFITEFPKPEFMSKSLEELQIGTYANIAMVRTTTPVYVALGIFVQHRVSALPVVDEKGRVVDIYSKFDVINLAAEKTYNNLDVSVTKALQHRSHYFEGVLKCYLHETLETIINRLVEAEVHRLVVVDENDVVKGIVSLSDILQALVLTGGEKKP
Procedure: To a buffer solution consisting of a 50 mM HEPES-NaOH buffer solution (pH 7.0), 100 mM NaCl, 10 mM magnesium chloride, 0.1% bovine serum albumin, 0.2 mM sodium orthovanadate(V), 1 mM ethylene glycol-bis(2-aminoethyl ether)-N,N,N′,N′-tetraacetic acid (EGTA), 5 mM disodium (3-glycerophosphate and 2 mM dithiothreitol, a human AMPK α1β1γ1 enzyme (manufactured by Carna Biosciences, Inc.) was added in an amount to give a conversion rate of approximately 10% by reaction for 2 hours, and a compound dissolved in DMSO was added thereto so as to have a 1% DMSO concentration. The obtained liquid was left to stand for 10 minutes.
(§1) To the liquid, a substrate solution consisting of a 50 mM HEPES-NaOH buffer solution (pH 7.0), 100 mM NaCl, 10 mM magnesium chloride, 0.1% bovine serum albumin, 0.2 mM sodium orthovanadate(V), 1 mM ethylene glycol-bis(2-aminoethyl ether)-N,N,N′,N′ tetraacetic acid (EGTA), 5 mM disodium β-glycerophosphate, 2 mM dithiothreitol, 0.4 mM ATP and 3 μM FL-Peptide 7 (manufactured by Caliper Life Sciences, Inc.) was added in equal amount (10 μl in total). The obtained liquid was allowed to react at 25° C. for 2 hours, and 10 μl of 20 mM EDTA was then added thereto to stop the reaction.
(§2) To detect phosphorylated fluorescent substrates, the reaction liquid was applied to a measuring device, LabChip EZ Reader II manufactured by Caliper Life Science, Inc., for detecting fluorescence by using differences in mobility due to differences in charge. The setting conditions for the device were pressure, −1.5 PSI; upstream voltage, −2250 V; downstream voltage, −400 V; post sample buffer sip time, 40 seconds; final delay, 120 seconds; and peak order, Product First.

[2] = target: T2, Human AMPK α2β2γ1 (Homo sapiens, UniProt O43741+P54646); assay: AMPK activator evaluation, Test Example 2 (CaMKK2-phosphorylated enzyme, mobility shift); assay type: biochemical; details: human AMPK α2β2γ1 phosphorylated with CaMKK2, control = 100%; for Emax: read-out: Emax (maximum rate of increase in activity within the measurement range)
T2 construct: The full length cDNAs of human AMPK P2 (NM_005399.3) and human AMPK α2 (NM_006252.3); 6×His (N); made in house; host or cells: Escherichia coli BL21 CodonPlus (DE3)-RIL
T2 sequence (P54646 whole entry): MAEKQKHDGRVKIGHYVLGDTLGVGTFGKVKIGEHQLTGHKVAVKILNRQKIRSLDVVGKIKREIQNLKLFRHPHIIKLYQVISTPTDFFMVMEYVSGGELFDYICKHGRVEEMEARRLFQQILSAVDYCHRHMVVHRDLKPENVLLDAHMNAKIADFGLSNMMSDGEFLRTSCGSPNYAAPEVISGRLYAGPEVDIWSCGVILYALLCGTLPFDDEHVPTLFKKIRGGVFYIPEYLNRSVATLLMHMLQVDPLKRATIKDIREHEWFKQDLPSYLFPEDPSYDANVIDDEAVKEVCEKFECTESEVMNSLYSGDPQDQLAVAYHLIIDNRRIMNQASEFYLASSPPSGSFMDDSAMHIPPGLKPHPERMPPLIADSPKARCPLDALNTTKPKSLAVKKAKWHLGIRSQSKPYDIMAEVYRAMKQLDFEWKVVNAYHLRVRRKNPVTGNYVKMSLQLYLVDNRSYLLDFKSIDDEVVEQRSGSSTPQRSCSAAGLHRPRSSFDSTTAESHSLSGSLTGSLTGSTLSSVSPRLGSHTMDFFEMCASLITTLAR
T2 sequence (O43741 whole entry): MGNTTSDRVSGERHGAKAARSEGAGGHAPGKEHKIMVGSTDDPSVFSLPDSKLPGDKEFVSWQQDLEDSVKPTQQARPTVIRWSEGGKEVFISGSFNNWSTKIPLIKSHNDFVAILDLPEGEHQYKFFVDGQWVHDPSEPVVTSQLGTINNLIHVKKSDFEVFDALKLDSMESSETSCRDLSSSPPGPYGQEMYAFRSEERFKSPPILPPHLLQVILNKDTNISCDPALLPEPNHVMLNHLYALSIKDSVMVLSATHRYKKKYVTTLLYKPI
T2 sequence (P54619 whole entry partner): as the sequence (P54619 whole entry partner) above
Procedure: The full length cDNAs of human AMPK P2 (NM_005399.3) and human AMPK α2 (NM_006252.3) were inserted into the MCS1 and MCS2 of the pETDuet-1 vector to prepare a human AMPK β2 and human AMPK α2 (6×His tag at the 5′ terminus) expressing plasmid. The plasmid was contransfected with an expression plasmid, in which the full length cDNA of human AMPK γ1 (NM_002733.3) had been inserted into pET28b(+), into BL21 CodonPlus (DE3)-RIL to obtain an expression strain. The expression strain was cultured in TB medium, followed by induction with 0.5 mM IPTG, and cultured at 25° C. for 3 hours and then harvested. After ultrasonication, supernatant was collected and applied to Histrap column (GE) and RESOUECE Q 6 ml column (GE) to prepare 12.5 mg of purified sample containing three types of subunit from 1.8 L of broth.
An expression vector, in which the full length cDNA of human CAMKK β (NM_172226.1) had been inserted into pGEX-6P-3, was transfected into BL21 Star (DE3). The expression strain was cultured in TB medium, followed by induction with 0.5 mM IPTG, and cultured at 25° C. for 3 hours and then harvested. After ultrasonication, supernatant was collected and applied to GSTrap FF column (GE) to prepare 14 mg of GST-fused CAMKK β from 720 ml of broth.
Thus, phosphorylation treatment was carried out as pretreatment.
Human AMPK α2β2γ1 in an amount to give a conversion rate of approximately 10% by reaction for 2 hours, and CaMKK2 in an amount capable of sufficiently imparting activity to AMPK for one hour were mixed in a buffer solution consisting of a 50 mM HEPES-NaOH buffer solution (pH 7.0), 100 mM NaCl, 5 mM magnesium chloride, 0.1% bovine serum albumin, 0.2 mM sodium orthovanadate(V), 1 mM ethylene glycol-bis(2-aminoethyl ether)-N,N,N′,N′-tetraacetic acid (EGTA), 5 mM disodium β-glycerophosphate, 1 mM dithiothreitol and 0.2 mM ATP, and the obtained liquid was left to stand at 25° C. for 1 to 1.5 hours to sufficiently phosphorylate AMPK.
After that, to the enzyme liquid, which had been subjected to phosphorylation treatment, a compound dissolved in DMSO was added so as to have a 1% DMSO concentration. The obtained liquid was left to stand for 10 minutes.
as §1, with “ether)-N,N,N′,N′-tetraacetic” for “ether)-N,N,N′,N′ tetraacetic”, “glycerophosphate,” for “β-glycerophosphate,”
as §2
A conversion rate was calculated from the peak heights of the resulting substrate and product. The conversion rate when not containing a compound was used as a control, and a concentration dependent curve was made by plotting the rate of increase in activity to the control at each concentration of a compound.

Compound	EC150 (compound concentration showing 150% relative to the control) [1]	Emax [1]	EC150 (compound concentration showing 150% relative to the control) [2]	Emax [2]
Cc1ccc(Oc2nc3nc(-c4ccc5c(ccn5C)c4)c(Cl)cc3[nH]2)cc1C(=O)O [Compound A-2]	7 nM	408%	74 nM	406%
O=C(O)c1ccc(Oc2nc3nc(-c4ccc(N5CCOCC5)cc4)c(Cl)cc3[nH]2)cc1 [Compound B-101]	120 nM	269%	1300 nM	212%
Cc1ccc(C(=O)O)cc1Oc1nc2nc(-c3ccc(N4CCOCC4)cc3)c(Cl)cc2[nH]1 [Compound B-108]	27 nM	340%	410 nM	341%
Cc1ccc(Oc2nc3nc(-c4ccc(N5CCOCC5)cc4)c(Cl)cc3[nH]2)cn1 [Compound B-119]	220 nM	265%	240 nM	242%
Cc1ccc(Oc2nc3cc(Cl)c(-c4ccc(-c5ccccc5O)cc4)nc3[nH]2)cc1C(=O)O [Compound C-4]	0.42 nM	355%	4.3 nM	292%
Cc1ccc(Oc2nc3nc(-c4ccc(N5CCOCC5)cc4)c(Cl)cc3[nH]2)cc1C(N)=O [Compound C-12]	140 nM	256%	130 nM	293%
O=C(O)C1(c2ccc(Oc3nc4nc(-c5ccc(N6CCCC6)cc5)c(Cl)cc4[nH]3)cc2)CC1 [Compound C-94]	12 nM	352%	59 nM	325%
Cc1ncc(Oc2nc3nc(-c4ccc(N5CCOCC5)cc4)c(Cl)cc3[nH]2)cn1 [Compound C-106]	690 nM	278%	580 nM	290%
CC(=O)NC(C)(C)c1ccc(Oc2nc3nc(-c4ccc(N5CCC(O)C5)cc4)c(Cl)cc3[nH]2)cc1 [Compound D-49]	3.5 nM	263%	54 nM	420%
